Experimental data published in publication PMC8694140, “Synthesis and photobiological applications of naphthalimide–benzothiazole conjugates: cytotoxicity and topoisomerase IIα inhibition” (RSC Advances, 2021).

Assays:
[1] = tested on: MCF7 (breast) human cancer cell line; assay: MTT cytotoxicity assay, MCF7; assay type: cell-based; details: Homo sapiens, MCF7, 48 h
Method: (§1) Human malignant cell lines, i.e., MCF7 (breast), HeLa (cervix), and A549 (lung), as well as non-cancerous human cell line Hek293 (kidney), were cultured using the Ham's media or DMEM having 10% FBS, […] streptomycin, 100 U ml^−1 penicillin, and 50 mM glutamine. For seeding of cells, 96 well plates were used, maintaining the density of […] cells per well with the help of DMEM as a media having 10% FBS cells. Then, seeded cells were incubated in an incubator having a 5% CO2 supply at 37 °C. Compounds were added to the wells at 1, 10, and 100 μM concentrations, and cells were incubated for 48 h at 37 °C and then added 10 μl of MTT to each well prepared from 5 mg ml^−1 stock solution using 1 × PBS buffer and were incubated for 4 h at 37 °C in the dark. DMSO (100 μl) was used to dissolve the formazan crystals. To determine the concentration of formazan, the crystal absorbance difference was recorded at 570 nm. The percentage of relative cell toxicity was calculated by using the following eqn (1):1 [drawing 1]

[2] = tested on: HeLa (cervix) human cancer cell line; assay: MTT cytotoxicity assay, HeLa; assay type: cell-based; details: Homo sapiens, 48 h
Method: as §1

[3] = molecular target: human type IIa topoisomerase (Homo sapiens, UniProt P11388); assay: Relaxation assay of human topoisomerase IIa (supercoiled pHOT1 plasmid DNA, agarose gel); assay type: biochemical; details: compared with etoposide (Fig. S56)
human type IIa topoisomerase, sequence (P11388 whole entry): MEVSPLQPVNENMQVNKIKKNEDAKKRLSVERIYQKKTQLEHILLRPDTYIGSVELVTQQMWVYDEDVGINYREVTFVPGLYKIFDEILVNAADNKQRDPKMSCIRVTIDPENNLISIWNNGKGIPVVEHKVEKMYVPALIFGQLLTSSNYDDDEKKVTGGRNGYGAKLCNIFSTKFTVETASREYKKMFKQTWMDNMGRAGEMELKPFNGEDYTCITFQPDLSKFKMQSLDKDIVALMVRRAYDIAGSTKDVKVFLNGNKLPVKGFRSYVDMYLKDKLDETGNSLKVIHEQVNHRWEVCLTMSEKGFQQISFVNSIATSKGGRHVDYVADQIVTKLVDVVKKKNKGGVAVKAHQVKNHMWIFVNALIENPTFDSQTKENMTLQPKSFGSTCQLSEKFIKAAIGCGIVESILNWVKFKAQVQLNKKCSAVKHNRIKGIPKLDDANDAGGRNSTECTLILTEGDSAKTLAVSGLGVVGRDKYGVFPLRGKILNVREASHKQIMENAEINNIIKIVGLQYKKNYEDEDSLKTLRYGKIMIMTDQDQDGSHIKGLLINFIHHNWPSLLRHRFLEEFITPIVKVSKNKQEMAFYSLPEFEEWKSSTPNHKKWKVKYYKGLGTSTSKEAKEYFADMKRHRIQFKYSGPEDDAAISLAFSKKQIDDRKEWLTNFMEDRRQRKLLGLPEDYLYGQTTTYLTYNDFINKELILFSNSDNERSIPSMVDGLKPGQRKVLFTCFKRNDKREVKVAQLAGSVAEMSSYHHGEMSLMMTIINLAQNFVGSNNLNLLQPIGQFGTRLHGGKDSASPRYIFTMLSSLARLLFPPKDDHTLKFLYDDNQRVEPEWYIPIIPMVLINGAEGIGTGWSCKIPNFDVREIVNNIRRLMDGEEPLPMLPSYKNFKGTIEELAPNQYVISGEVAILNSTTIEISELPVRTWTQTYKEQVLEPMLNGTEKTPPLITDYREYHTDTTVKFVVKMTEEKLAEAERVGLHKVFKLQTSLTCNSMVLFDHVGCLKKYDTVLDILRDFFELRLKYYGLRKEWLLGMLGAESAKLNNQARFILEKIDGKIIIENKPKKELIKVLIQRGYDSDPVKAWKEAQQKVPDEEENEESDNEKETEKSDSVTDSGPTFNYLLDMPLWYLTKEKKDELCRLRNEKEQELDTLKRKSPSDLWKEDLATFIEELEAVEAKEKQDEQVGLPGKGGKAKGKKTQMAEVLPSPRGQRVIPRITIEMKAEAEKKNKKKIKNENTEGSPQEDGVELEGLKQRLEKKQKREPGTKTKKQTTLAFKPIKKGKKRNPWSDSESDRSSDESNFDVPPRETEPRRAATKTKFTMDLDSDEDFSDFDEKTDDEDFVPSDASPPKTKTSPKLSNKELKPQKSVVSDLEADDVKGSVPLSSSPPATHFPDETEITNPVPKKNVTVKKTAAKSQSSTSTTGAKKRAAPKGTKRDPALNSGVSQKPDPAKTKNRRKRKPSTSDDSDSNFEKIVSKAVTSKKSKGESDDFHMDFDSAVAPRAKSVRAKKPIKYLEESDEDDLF
Method: The concentrations 0.1, 0.5, 1, 1.5, 2, and 3 μM were taken for both compounds (Fig. 3).
The assay of human type IIa topoisomerase mediated relaxation of supercoiled plasmid DNA was performed using reaction buffer (20 μl) (5 mM dithiothreitol, 0.5 M Tris–HCl, pH 8.0, 20 mM ATP, 1.50 M NaCl, 300 μg ml^−1 BSA, and 100 mM MgCl2) having supercoiled pHOT1 plasmid DNA (500 ng) and human type IIa topoisomerase enzyme (4 units). The reaction mixtures were incubated for 30 min at 37 °C, followed by adding 10% sodium dodecyl sulfate (2 μl) to stop the reaction. Added 0.5 mg ml^−1 proteinase K (1 μl) to the reaction mixture and allowed to incubate for 15 min at 37 °C. Then, added loading buffer, i.e., 0.25% bromophenol blue and 50% glycerol (1 μl) to the reaction mixture and run on 1% agarose gel electrophoresis using TAE buffer (1.14 ml acetic acid, and 0.37 g EDTA pH 8.1, and 100 ml of 10× stock solution–4.8 g of Tris base). The gel containing DNA was stained with ethidium bromide, washed, and photographed using UV light.

[4] = molecular target: T1, human serum albumin (HSA) (Homo sapiens, UniProt P02768); assay: UV-vis absorption titration of HSA (Benesi–Hildebrand); assay type: binding; details: HSA 10 μM; for enhancement in absorbance of HSA at 280 nm: compound up to 7 μM; for Kd: UV-vis, phosphate buffer pH 7.4, 298 K, read-out: binding constant compound–HSA (Benesi–Hildebrand) (converted)
T1 sequence (P02768 25-609): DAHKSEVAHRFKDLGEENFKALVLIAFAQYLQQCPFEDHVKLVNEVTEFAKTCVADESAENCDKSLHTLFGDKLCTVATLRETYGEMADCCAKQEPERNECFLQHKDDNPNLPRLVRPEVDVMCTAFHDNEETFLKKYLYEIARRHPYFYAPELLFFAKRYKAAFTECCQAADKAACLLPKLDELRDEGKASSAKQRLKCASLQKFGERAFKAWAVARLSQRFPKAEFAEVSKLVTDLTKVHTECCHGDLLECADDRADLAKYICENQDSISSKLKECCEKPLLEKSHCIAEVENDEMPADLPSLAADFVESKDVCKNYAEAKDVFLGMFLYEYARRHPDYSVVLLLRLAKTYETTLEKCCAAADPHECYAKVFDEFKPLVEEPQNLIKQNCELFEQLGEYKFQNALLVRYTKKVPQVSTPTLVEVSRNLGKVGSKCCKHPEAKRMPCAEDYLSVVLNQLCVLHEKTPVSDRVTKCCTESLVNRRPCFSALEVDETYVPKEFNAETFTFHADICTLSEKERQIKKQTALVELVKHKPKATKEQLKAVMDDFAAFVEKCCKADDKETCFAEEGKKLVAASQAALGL
Method: To check the interactions between HSA and compounds, UV-vis absorption spectra of HSA (10 μM) were recorded in the absence and incremental additions of compounds 12 and 13 (7 μM). Noteworthy, enhancement in absorbance of HSA at 280 nm (57% for compound 12 and 51% for compound 13) on increasing concentrations of compounds indicated perturbations in the microenvironment of protein's chromophores as a result of interaction between HSA and compounds along with the development of new band at 348 nm (Fig. 4). Increasing the concentration of compounds also produces an enhancement in absorbance value at 348 nm. The binding constants for the compound–HSA system were calculated by Benesi–Hildebrand eqn (2)[32] as 1.75 × 10^5 M^−1 for compound 12 and 1.88 × 10^5 M^−1 for compound 13 (Fig. S57 ^†). These strong binding affinities are favorable for the adequate transportation of these compounds to their target sites.
To record the absorption spectra of HSA, a fixed amount of HSA (10 μM) was titrated with the increasing concentrations of compounds 12 and 13 (7 μM) in the phosphate buffer of pH 7.4 at 298 K. The phosphate buffer was used as a blank solution for baseline corrections. The absorption spectra were recorded in the range of 200–800 nm. […] To calculate the Kb value, the ratio of intercept to the slope was used as A0/(A − A0) versus 1/[compound] plots.

[5] = molecular target: T1, human serum albumin (HSA); assay: Excited-state fluorescence lifetime of HSA; assay type: binding; details: compound 7 μM
Method: A fluorescence lifetime experiment was performed to discover the quenching mechanism of compounds 12 and 13 for interactions with HSA. The decay lifetime (τ) generally remains unaltered in ground state quenching while it gets changed in excited state quenching.[46,47] The fluorescence lifetime spectrum of HSA (7 μM) was performed upon increasing concentrations of compounds 12 and 13 (0–70 μM) (Fig. S65 ^†). […] Therefore, it can conclude that the fluorescence quenching of HSA by compounds 12 and 13 was characterized as a static quenching and thus formed a stable complex with HSA at the ground state.
Time-resolved fluorescence was recorded by taking a fixed amount of HSA (10 μM) with incremental additions of compounds (12 and 13) ([…]) by maintaining the ratio of HSA : compound = 1 : 0, 1 : 1, 1 : 5 and 1 : 10. The spectra were recorded at 345 nm emission wavelength in phosphate buffer of pH 7.4 at 298 K. To determine the average fluorescence lifetime (τ), the following eqn (7) was used.7 τ = ∑τiαiwhere τi and αi denote decay time and relative amplitude, respectively.

[6] = molecular target: T1, human serum albumin (HSA); assay: Synchronous fluorescence spectroscopy of HSA; assay type: binding; details: Δλ = 15 nm, tyrosine residue
Text: Synchronous fluorescence spectroscopy (SFS) is commonly used to evaluate the effect of ligand binding on the microenvironment of protein and its amino acids. It is usually observed that a change in polarity of the chromophore of protein causes deviation in the excitation wavelength of a particular amino acid residue.[48,49] This deviation can provide information about the change in confirmation of HSA on the binding of ligand. The SFS of HSA was noted using a fixed difference in wavelengths (Δλ) of 15 nm and 60 nm of synchronized recording of excitation and emission monochromators, which are characteristics of tyrosine and tryptophan amino acid residues, respectively.[50,51] […] The addition of compounds 12 and 13 produced a slight blue shift of about 4 nm at Δλ = 15 nm, corresponding to a tyrosine residue.
The synchronous fluorescence experiment of HSA was performed at a fixed amount of HSA and increasing concentrations of compounds 12 and 13. The spectra were recorded by taking the difference between the wavelengths of excitation and emission (Δλ = λemi − λexc) at 15 nm and 60 nm.

Structure (SMILES) | IC50 [1] [µM] | IC50 [2] [µM] | inhibition of topoisomerase II relaxation ([3]; 1 μM) | inhibition of topoisomerase II relaxation ([3]; 5, 10 and 50 μM) | enhancement in absorbance of HSA at 280 nm [4] [%] | Kd [4] [µM] | α 1 of HSA fluorescence decay [5] | α 2 of HSA fluorescence decay [5] | α 3 of HSA fluorescence decay [5] | τ 3 of HSA fluorescence decay [5] [ns] | τ (average fluorescence lifetime of HSA) [5] [ns] | blue shift of synchronous fluorescence of HSA [6]
C=CCn1cc(-c2nc3ccccc3s2)c2cc(-c3ccc4c5c(cccc35)C(=O)N(CCO)C4=O)ccc21 [Compound 12, 6-(1-Allyl-3-(benzo[d]thiazol-2-yl)-1H-indol-5-yl)-2-(2-hydroxyethyl)-1H-benzo[de]isoquinoline-1,3(2H)-dione] | 3.81 ± 0.19 | 3.76 ± 0.2 | partially inhibitor | significant and active inhibitors | 57 | 5.71 | 0.42 | 0.20 | 0.38 | 0.80 | 3.13 | about 4 nm
C#CCN1C(=O)c2cccc3c(-c4ccc5c(c4)c(-c4nc6ccccc6s4)cn5CC=C)ccc(c23)C1=O [Compound 13, 6-(1-Allyl-3-(benzo[d]thiazol-2-yl)-1H-indol-5-yl)-2-(prop-2-yn-1-yl)-1H-benzo[de]isoquinoline-1,3(2H)-dione] | 3.49 ± 0.12 | 3.64 ± 0.19 | partially inhibitor | significant and active inhibitors | 51 | 5.32 | 0.41 | 0.23 | 0.36 | 0.84 | 3.25 | about 4 nm
